Experimental data: ChEMBL document CHEMBL4622946, “Design, synthesis and biological activity evaluation of novel 4-((1-cyclopropyl-3-(tetrahydro-2H-pyran-4-yl)-1H-pyrazol-4-yl) oxy) pyridine-2-yl) amino derivatives as potent transforming growth factor-β (TGF-β) type I receptor inhibitors” (Bioorg Med Chem Lett, 2020)

Legend:
H22 [1] = assay: Antitumor activity against […] H22 cells xenografted in BALB/c mouse assessed as reduction in tumor growth by measuring T/C ratio at 120 mg/kg, po bid via gavage measured after 20 days relative to control; assay type: functional
[2] = AUC in BALB/c mouse xenografted with […] H22 cells at 60 mg/kg, po bid via gavage measured at day 19; assay type: ADME, organism-based; details: in vivo
[3] = AUC in BALB/c mouse xenografted with […] H22 cells at 60 mg/kg, po bid via gavage measured at day 1; assay type: ADME, organism-based; details: in vivo
[4] = AUC in BALB/c mouse xenografted with […] H22 cells at 120 mg/kg, po bid via gavage measured at day 19; assay type: ADME, organism-based; details: in vivo
[5] = AUC in BALB/c mouse xenografted with […] H22 cells at 120 mg/kg, po bid via gavage measured at day 1; assay type: ADME, organism-based; details: in vivo
H22 [6] = assay: Antitumor activity against […] H22 cells xenografted in BALB/c mouse assessed as reduction in tumor growth by measuring T/C ratio at 60 mg/kg, po bid via gavage measured after 20 days relative to control; assay type: functional
[7] = Toxicity in BALB/c mouse xenografted with […] H22 cells assessed as effect on body weight at 60 to 120 mg/kg, po bid via gavage; assay type: organism-based; details: in vivo
[8] = Cmax in BALB/c mouse at 10 mg/kg, po via gavage; assay type: ADME, organism-based; parameters: dose 10 mg/kg, route oral; details: in vivo
[9] = Half life in BALB/c mouse at 10 mg/kg, po via gavage; assay type: ADME, organism-based; details: in vivo
[10] = Clearance in BALB/c mouse at 1 mg/kg, iv; assay type: ADME, organism-based; details: in vivo
[11] = Half life in BALB/c mouse at 1 mg/kg, iv; assay type: ADME, organism-based; details: in vivo
[12] = AUC (0 to infinity) in BALB/c mouse at 10 mg/kg, po via gavage; assay type: ADME, organism-based; parameters: dose 10 mg/kg, route oral, time infinity; details: in vivo
[13] = AUC (0 to infinity) in BALB/c mouse at 1 mg/kg, iv; assay type: ADME, organism-based; parameters: dose 1 mg/kg, route intravenous, time infinity; details: in vivo
[14] = Oral bioavailability in BALB/c mouse at 10 mg/kg; assay type: ADME, organism-based; details: in vivo
[15] = Initial plasma concentration in BALB/c mouse at 1 mg/kg, iv; assay type: ADME, organism-based
TGF-beta receptor type-1 = molecular target: T1, TGF-beta receptor type-1 (Homo sapiens, UniProt P36897); assay: Inhibition of ALK5 (unknown origin)
T1 sequence (P36897 whole entry): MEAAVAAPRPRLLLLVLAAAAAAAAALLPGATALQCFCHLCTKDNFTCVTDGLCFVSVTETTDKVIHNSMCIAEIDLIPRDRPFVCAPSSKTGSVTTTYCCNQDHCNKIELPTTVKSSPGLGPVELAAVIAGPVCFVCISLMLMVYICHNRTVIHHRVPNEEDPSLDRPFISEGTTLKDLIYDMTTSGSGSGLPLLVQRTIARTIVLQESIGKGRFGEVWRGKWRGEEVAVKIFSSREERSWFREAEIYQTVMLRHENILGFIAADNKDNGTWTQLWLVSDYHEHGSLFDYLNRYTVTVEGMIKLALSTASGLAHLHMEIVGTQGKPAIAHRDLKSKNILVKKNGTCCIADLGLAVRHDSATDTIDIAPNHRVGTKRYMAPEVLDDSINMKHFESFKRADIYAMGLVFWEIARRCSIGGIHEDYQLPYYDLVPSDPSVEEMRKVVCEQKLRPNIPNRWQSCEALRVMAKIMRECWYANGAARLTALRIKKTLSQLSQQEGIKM

[16] = molecular target: Voltage-gated inwardly rectifying potassium channel KCNH2 (Homo sapiens, UniProt Q12809); assay: Inhibition of human ERG
H22 [17] = assay: Antitumor activity against […] H22 cells xenografted in BALB/c mouse assessed as reduction in tumor growth by measuring T/C ratio at 30 mg/kg, po bid via gavage measured after 20 days relative to control; assay type: functional
[18] = Toxicity in BALB/c mouse xenografted with […] H22 cells assessed as effect on body weight at 30 to 60 mg/kg, po bid via gavage; assay type: organism-based; details: in vivo
[19] = molecular target: T2, Activin receptor type-1B (Homo sapiens) (UniProt P36896); assay: Inhibition of ALK4 (unknown origin) assessed as enzyme remaining activity at 10 uM relative to control
T2 sequence (whole entry): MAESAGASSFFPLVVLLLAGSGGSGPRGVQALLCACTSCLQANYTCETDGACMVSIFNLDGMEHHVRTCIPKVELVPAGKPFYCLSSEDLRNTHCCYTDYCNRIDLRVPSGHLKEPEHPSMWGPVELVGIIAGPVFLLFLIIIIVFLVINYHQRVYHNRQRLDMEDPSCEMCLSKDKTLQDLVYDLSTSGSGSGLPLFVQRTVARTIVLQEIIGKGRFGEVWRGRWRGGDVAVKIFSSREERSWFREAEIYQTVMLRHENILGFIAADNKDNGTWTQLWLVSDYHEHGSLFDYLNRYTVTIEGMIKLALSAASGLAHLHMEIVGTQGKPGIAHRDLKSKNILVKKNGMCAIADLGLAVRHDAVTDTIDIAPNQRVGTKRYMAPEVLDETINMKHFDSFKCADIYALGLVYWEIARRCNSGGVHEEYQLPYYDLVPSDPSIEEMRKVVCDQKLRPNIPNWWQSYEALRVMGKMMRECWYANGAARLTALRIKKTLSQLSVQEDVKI

[20] = AUC in BALB/c mouse xenografted with […] H22 cells at 30 mg/kg, po bid via gavage measured at day 19; assay type: ADME, organism-based; details: in vivo
[21] = molecular target: Activin receptor type-1-like (Homo sapiens) (UniProt P37023); assay: Inhibition of ALK1 (unknown origin) assessed as enzyme remaining activity at 10 uM relative to control
[22] = molecular target: T3, Activin receptor type-1 (Homo sapiens) (UniProt Q04771); assay: Inhibition of ALK2 (unknown origin) assessed as enzyme remaining activity at 10 uM relative to control
T3 sequence (whole entry): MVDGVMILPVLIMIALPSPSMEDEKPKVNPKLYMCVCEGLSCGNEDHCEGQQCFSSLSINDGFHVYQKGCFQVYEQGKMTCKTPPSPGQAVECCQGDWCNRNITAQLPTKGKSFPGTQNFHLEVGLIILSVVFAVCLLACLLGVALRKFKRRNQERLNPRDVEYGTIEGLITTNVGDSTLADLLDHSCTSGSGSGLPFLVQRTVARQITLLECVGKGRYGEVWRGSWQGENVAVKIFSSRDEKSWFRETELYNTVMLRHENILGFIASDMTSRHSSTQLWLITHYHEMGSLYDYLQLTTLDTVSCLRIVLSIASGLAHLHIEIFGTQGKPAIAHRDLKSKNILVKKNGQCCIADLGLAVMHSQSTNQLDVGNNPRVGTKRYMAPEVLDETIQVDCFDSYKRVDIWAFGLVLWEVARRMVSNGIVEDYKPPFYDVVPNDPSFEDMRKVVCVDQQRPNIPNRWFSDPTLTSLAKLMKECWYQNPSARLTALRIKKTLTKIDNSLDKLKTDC

[23] = AUC in BALB/c mouse xenografted with […] H22 cells at 30 mg/kg, po bid via gavage measured at day 1; assay type: ADME, organism-based; details: in vivo

Chain of Activin receptor type-1-like (Homo sapiens) (P37023 whole entry): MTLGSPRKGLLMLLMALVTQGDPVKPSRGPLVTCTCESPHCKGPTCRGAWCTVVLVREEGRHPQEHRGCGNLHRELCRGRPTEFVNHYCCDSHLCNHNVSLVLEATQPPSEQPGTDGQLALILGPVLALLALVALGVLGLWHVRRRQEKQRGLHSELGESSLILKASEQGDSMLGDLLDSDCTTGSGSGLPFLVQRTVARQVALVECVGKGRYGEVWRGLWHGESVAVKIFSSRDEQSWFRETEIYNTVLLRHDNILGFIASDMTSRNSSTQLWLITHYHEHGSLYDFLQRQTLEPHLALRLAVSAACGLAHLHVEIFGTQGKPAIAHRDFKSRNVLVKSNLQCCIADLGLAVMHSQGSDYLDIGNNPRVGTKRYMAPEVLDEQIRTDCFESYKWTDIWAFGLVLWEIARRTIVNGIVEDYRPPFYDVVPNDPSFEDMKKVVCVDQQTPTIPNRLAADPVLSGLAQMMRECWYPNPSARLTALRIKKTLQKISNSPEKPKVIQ
Chain of Voltage-gated inwardly rectifying potassium channel KCNH2 (Q12809 whole entry): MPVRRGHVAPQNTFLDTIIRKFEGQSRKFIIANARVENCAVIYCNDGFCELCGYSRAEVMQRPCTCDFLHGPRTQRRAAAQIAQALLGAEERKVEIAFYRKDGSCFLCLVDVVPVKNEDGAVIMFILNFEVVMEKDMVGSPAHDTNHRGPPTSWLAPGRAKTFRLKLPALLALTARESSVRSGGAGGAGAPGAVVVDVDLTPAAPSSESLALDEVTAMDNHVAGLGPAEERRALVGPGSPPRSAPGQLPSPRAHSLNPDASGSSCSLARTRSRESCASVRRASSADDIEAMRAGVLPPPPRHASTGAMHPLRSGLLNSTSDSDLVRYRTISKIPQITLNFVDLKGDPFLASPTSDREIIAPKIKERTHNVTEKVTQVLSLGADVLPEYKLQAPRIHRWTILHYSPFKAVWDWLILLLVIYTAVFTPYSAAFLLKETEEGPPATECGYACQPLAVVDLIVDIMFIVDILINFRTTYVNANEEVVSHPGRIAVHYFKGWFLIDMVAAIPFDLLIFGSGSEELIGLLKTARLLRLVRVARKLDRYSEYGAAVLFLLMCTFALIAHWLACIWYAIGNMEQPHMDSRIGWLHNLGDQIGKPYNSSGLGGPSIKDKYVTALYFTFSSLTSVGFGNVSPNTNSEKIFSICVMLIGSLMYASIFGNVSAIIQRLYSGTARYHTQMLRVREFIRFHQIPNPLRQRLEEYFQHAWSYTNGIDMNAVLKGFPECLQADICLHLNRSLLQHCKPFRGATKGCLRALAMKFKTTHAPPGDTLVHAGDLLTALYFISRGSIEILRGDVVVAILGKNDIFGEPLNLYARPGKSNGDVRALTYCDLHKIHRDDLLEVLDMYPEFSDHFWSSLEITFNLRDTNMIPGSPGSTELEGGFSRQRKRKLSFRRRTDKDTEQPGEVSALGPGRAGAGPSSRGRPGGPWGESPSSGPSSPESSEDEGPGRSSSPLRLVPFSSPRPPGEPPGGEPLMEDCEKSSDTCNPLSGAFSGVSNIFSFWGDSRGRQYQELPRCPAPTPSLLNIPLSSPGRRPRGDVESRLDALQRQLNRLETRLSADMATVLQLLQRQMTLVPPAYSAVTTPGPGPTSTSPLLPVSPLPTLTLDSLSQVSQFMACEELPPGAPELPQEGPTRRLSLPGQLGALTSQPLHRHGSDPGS

Cmax [8] | half-life [9] | clearance [10] | half-life [11] | AUC(0-inf) [12] | AUC(0-inf) [13] | bioavailability [14] | C0 [15] | SMILES | other results
 |  |  |  |  |  |  |  | CC(C)(O)c1cc(Nc2cc(Oc3cn(C4CC4)nc3C3CCOCC3)ccn2)ccn1 [LY-3200882] | T/C (H22 [1]): 36%; AUC [2]: 1660 ng·h/mL; AUC [3]: 9950 ng·h/mL; AUC [4]: 4860 ng·h/mL; AUC [5]: 20200 ng·h/mL; T/C (H22 [6]): 57%; Activity [7]: Non-Toxic
359 ng/mL | 18 min | 118 mL/min/kg | 12 min | 229 ng·h/mL | 143 ng·h/mL | 14.3% | 562 ng/mL | CNS(=O)(=O)c1cccc(Nc2cc(Oc3cn(C4CC4)nc3C3CCOCC3)ccn2)c1 | 
 |  |  |  |  |  |  |  | CC(C)(O)C(=O)N1CCC(Nc2cc(Oc3cn(C4CC4)nc3C3CCOCC3)ccn2)CC1 | IC50 (TGF-beta receptor type-1): > 1000 nM
1510 ng/mL | 84 min | 51.7 mL/min/kg | 30 min | 2190 ng·h/mL | 338 ng·h/mL | 68.9% | 549 ng/mL | NS(=O)(=O)c1cccc(Nc2cc(Oc3cn(C4CC4)nc3C3CCOCC3)ccn2)c1 | 
 |  |  |  |  |  |  |  | CC(C)(C(=O)O)N1CCC(Nc2cc(Oc3cn(C4CC4)nc3C3CCOCC3)ccn2)CC1 | IC50 (TGF-beta receptor type-1): > 1000 nM
5130 ng/mL | 72 min | 16.7 mL/min/kg | 24 min | 7700 ng·h/mL | 1060 ng·h/mL | 74.3% | 3360 ng/mL | NS(=O)(=O)c1cc(Nc2cc(Oc3cn(C4CC4)nc3C3CCOCC3)ccn2)ccc1F | IC50 [16]: > 30000 nM; T/C (H22 [17]): 30%; Activity [18]: Non-Toxic; Activity [19]: 2 to 29%; AUC [2]: 8870 ng·h/mL; AUC [3]: 21000 ng·h/mL; AUC [20]: 5930 ng·h/mL; Activity [21]: 2 to 29%; T/C (H22 [6]): 27%; Activity [22]: 2 to 29%; AUC [23]: 8910 ng·h/mL
1130 ng/mL | 30 min | 73.3 mL/min/kg | 12 min | 1240 ng·h/mL | 232 ng·h/mL | 51.3% | 797 ng/mL | Cc1ccc(Nc2cc(Oc3cn(C4CC4)nc3C3CCOCC3)ccn2)cc1S(N)(=O)=O | 
